Laboratory results from patent US20120010148A1, “COMBINATION THERAPIES USING NAP” (ALLON THERAPEUTICS INC., priority 2008, published 2012).
Ends that are not written are not given here.

Assays:
[1] = tested on: Human SH-SY5Y neuroblastoma; assay: Clozapine-induced cell death in SH-SY5Y cells, MTS assay; assay type: cell-based; details: clozapine 20 μg/ml, 24 hours, FIG. 1
Text: Clozapine, a widely used anti psychotic drug may be associated with increased cell mortality. It was not known, however, whether NAP ([…], SEQ ID NO:2) treatment would inhibit clozapine associated neuronal death. To address this question and validate the efficiency of using a NAP-clozapine combination drug candidate, an experimental test system in cell culture was established (Heiser et al., Journal of Psychopharmacology 21(8):851-856 (2007)). Human SH-SY5Y neuroblastoma supplemented with 15% fetal calf serum (FCS) (Beit-Haemek, Israel), 1% penicillin-streptomycin, and 1% glutamine were incubated in a 5% CO2 atmosphere. Thirty-six thousand cells/well (in a 96 well plates) were plated 24 hours prior to the clozapine or NAP treatment. Clozapine (CLZ) was obtained from Sigma Chemicals (Sigma, Israel). Thirty-six thousand cells per well (in at least 6 replicate wells) were exposed to clozapine (CLZ, 20 μg/ml) or clozapine (CLZ, 20 μg/ml)+NAP or NAP alone (10^−15M-10^−10 M) for 24 hours at 37° C. Drug and control solutions were dissolved in ethanol. Measurement of metabolic activity and survival was determined by non-radioactive cell proliferation assay (MTS) (Promega, USA) and evaluated by an ELISA-reader at 490 nm wavelength.

STOP+/− male mice = assay: Mortality under chronic clozapine with or without intranasal NAP; assay type: in vivo, mouse; details: clozapine 10 mg/kg IP daily, n=4
Protocol: STOP+/− male mice (6 months old in average, n=4) received daily doses of 10 mg/kg intraperitoneal injection (IP) of clozapine (5 days a week), for the duration of the experiment (5 weeks). Clozapine (10 mg/kg) was solubilized under acidic conditions (pH ˜2.0 with HCl), and the solutions titrated back to ˜pH 7.4 with NaOH. In addition, these mice received daily intranasal vehicle solution that included the following ingredients (per milliliter): 7.5 mg of NaCl, 1.7 mg of citric acid monohydrate, 3 mg of disodium phosphate dihydrate, and 0.2 mg of benzalkonium chloride solution (50%) (Alcalay et al., Neurosci Lett 361, 128-131, 2004).
A combination of clozapine with NAP experiment included an additional four mice (6 months old in average) that were injected with clozapine and administered with NAP intranasally in the vehicle delineated above (Alcalay et al., Neurosci Lett 361, 128-131, 2004). NAP or vehicle solution was administered daily to mice hand-held in a semi-supine position with nostrils facing the investigator. A pipette tip was used to administer 2.5 μl/nostril. The mouse was hand-held until the solution was totally absorbed (˜10 s).
The experiment continued for 5 weeks.

STOP−/− mice = details: STOP−/− schizophrenia model; cited from earlier work
[2] = tested on: neurons of the central nervous system; details: in vitro assays and in vivo disease models; cited from earlier work
MS = details: daily subcutaneous injections, 20 mg/injection; cited from earlier work

Compound: CN1CCN(C2=Nc3cc(Cl)ccc3Nc3ccccc32)CC1 [clozapine, Clozapine]
- cell death [1]: about 60%
- death (STOP+/− male mice; after 2.5 weeks of treatment): 50%
- death (cumulative) (STOP+/− male mice; at ~4.5 weeks): 75%

Compound: C/C1=C/C[C@@H](/C(C)=C/c2csc(C)n2)OC(=O)C[C@H](O)C(C)(C)C(=O)[C@H](C)[C@@H](O)[C@@H](C)CCC1 [epothilone D]
- synaptic function and behavior (STOP−/− mice): ameliorates synaptic function and behavior

Compound: SALLRSIPA
- survival of neurons in response to various insults [2]: keep neurons of the central nervous system alive

Compound: glatiramer acetate
- relapse rates, progression of disability, new MRI lesions (MS): reduce relapse rates, progression of disability, appearance of new lesions
